ChEMBL document CHEMBL5104220, “Development of Gilteritinib-Based Chimeric Small Molecules that Potently Induce Degradation of FLT3-ITD Protein” (ACS Med Chem Lett, 2022)
Active and inactive are the calls of the source. The rule behind the calls is not given here.

How the values were obtained:
[1] = target: T1, Signal transducer and activator of transcription 5A (Homo sapiens) (UniProt P42229); test: Inhibition of STAT5 phosphorylation in human MV4-11 cells at 0.03 to 3 uM incubated for 24 hrs by Western blot analysis; assay type: cell-based; settings: dose 0.03-3 µM
T1 sequence (whole entry): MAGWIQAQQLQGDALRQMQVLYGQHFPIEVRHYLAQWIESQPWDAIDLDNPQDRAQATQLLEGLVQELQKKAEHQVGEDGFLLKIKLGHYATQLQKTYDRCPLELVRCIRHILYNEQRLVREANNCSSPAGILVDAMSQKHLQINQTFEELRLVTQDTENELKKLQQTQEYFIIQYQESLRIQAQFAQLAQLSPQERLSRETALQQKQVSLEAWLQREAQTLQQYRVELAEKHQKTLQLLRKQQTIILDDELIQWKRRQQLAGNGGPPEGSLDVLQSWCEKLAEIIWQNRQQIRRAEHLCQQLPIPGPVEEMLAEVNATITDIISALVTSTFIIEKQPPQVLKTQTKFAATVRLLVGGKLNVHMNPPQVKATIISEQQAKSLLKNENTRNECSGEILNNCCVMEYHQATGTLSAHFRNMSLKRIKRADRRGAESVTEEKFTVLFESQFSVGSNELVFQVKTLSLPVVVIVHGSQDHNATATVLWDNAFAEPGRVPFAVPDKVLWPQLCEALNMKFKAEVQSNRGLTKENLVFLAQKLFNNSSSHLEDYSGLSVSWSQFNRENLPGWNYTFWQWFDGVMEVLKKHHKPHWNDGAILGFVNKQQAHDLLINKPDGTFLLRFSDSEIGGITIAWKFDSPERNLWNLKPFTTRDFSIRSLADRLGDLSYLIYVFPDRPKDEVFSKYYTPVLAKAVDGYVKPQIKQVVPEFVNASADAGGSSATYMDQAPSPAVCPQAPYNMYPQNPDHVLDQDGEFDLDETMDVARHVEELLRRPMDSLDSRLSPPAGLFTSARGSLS

[2] = system: Protein cereblon/Receptor-type tyrosine-protein kinase FLT3 (Homo sapiens), P36888+Q96SW2 [UNDEFINED MUTATION]; test: PROTAC activity at CRBN/FLT3-ITD mutant in human MV4-11 cells assessed as decrease in LTK protein expression by Western blot analysis; assay type: cell-based
Chain of Protein cereblon/Receptor-type tyrosine-protein kinase FLT3 (Homo sapiens), P36888+Q96SW2 [UNDEFINED MUTATION] (P36888 whole entry, looked up, stated change not applied): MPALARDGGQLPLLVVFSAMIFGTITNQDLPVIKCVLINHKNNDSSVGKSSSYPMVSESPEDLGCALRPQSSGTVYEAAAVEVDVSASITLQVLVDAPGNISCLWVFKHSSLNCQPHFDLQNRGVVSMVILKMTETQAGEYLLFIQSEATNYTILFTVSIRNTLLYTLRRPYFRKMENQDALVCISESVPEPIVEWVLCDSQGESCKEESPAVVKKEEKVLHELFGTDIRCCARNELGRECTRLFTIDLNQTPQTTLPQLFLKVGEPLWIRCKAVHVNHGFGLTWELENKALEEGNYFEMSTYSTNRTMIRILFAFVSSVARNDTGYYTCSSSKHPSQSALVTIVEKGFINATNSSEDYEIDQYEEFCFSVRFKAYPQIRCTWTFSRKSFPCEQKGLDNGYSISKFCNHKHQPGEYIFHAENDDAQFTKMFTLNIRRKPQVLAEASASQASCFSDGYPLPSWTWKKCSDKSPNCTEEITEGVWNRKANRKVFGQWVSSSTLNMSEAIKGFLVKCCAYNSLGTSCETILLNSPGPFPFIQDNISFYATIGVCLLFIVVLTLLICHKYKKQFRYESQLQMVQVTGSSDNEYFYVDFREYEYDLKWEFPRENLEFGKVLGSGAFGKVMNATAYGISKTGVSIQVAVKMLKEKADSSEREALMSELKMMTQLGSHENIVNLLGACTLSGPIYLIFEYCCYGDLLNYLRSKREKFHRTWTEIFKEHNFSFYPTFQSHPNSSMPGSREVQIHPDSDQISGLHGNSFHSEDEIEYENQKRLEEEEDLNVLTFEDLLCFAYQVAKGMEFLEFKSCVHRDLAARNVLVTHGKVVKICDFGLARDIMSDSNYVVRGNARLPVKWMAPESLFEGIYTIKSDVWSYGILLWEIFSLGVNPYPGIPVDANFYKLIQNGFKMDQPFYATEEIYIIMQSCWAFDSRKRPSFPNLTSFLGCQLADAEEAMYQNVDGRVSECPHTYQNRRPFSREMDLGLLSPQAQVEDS
Chain of Protein cereblon/Receptor-type tyrosine-protein kinase FLT3 (Homo sapiens), P36888+Q96SW2 [UNDEFINED MUTATION] (Q96SW2 whole entry, looked up, stated change not applied): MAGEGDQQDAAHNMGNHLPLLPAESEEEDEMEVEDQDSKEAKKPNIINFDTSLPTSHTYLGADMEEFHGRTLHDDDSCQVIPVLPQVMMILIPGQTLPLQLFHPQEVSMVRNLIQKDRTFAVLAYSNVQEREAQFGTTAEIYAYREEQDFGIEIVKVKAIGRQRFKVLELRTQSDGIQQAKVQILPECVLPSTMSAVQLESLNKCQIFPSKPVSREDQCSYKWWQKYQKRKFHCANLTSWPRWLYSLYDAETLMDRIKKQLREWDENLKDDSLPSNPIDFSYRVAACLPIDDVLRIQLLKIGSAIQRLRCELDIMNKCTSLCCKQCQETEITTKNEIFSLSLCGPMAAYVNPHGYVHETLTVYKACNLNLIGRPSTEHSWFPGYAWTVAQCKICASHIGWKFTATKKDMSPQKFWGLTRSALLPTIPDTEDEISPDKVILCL

[3] = system: Protein cereblon/Receptor-type tyrosine-protein kinase FLT3 (Homo sapiens), P36888+Q96SW2 [UNDEFINED MUTATION]; test: PROTAC activity at CRBN/FLT3-ITD mutant in human MV4-11 cells assessed as decrease in IKZF1 protein expression at 0.01 to 0.3 uM incubated for 24 hrs by Western blot analysis; assay type: cell-based; settings: dose 0.01-0.3 µM
[4] = system: Protein cereblon/Receptor-type tyrosine-protein kinase FLT3 (Homo sapiens), P36888+Q96SW2 [UNDEFINED MUTATION]; test: PROTAC activity at CRBN/FLT3-ITD mutant in human MOLM-14 cells assessed as decrease in LTK protein expression by Western blot analysis; assay type: cell-based
[5] = system: Protein cereblon/Receptor-type tyrosine-protein kinase FLT3 (Homo sapiens), P36888+Q96SW2 [UNDEFINED MUTATION]; test: PROTAC activity at CRBN/FLT3-ITD mutant in human MOLM-14 cells assessed as decrease in FLT3 protein expression at 0.03 to 3 uM incubated for 24 hrs by Western blot analysis; assay type: cell-based; settings: dose 0.03-3 µM
[6] = system: Protein cereblon/Receptor-type tyrosine-protein kinase FLT3 (Homo sapiens), P36888+Q96SW2 [UNDEFINED MUTATION]; test: PROTAC activity at CRBN/FLT3-ITD mutant in human MV4-11 cells assessed as decrease in FLT3 protein expression at 0.03 to 3 uM incubated for 24 hrs by Western blot analysis; assay type: cell-based; settings: dose 0.03-3 µM
[7] = system: Protein cereblon/Receptor-type tyrosine-protein kinase FLT3 (Homo sapiens), P36888+Q96SW2 [UNDEFINED MUTATION]; test: PROTAC activity at CRBN/FLT3-ITD mutant in human MOLM-14 cells assessed as decrease in FLT3 mRNA expression at 0.03 to 3 uM incubated for 24 hrs by RT-qPCR analysis; assay type: cell-based; settings: dose 0.03-3 µM
[8] = system: Protein cereblon/Receptor-type tyrosine-protein kinase FLT3 (Homo sapiens), P36888+Q96SW2 [UNDEFINED MUTATION]; test: PROTAC activity at CRBN/FLT3-ITD mutant in human MV4-11 cells assessed as decrease in ALK protein expression by Western blot analysis; assay type: cell-based
[9] = system: Protein cereblon/Receptor-type tyrosine-protein kinase FLT3 (Homo sapiens), P36888+Q96SW2 [UNDEFINED MUTATION]; test: PROTAC activity at CRBN/FLT3-ITD mutant in human MV4-11 cells assessed as decrease in FLT3 protein expression at 0.3 to 3 uM incubated for 18 hrs in the presence of bafilomycin A1 by Western blot analysis; assay type: cell-based; settings: dose 0.3-3 µM
MV4-11 = test: Antiproliferative activity against human MV4-11 cells harboring FLT3-ITD mutant assessed as inhibition of cell proliferation incubated for 72 hrs by WST-8 assay; assay type: functional, cell-based; settings: MV4-11, 72 h
[10] = system: Protein cereblon/Receptor-type tyrosine-protein kinase FLT3 (Homo sapiens), P36888+Q96SW2 [UNDEFINED MUTATION]; test: PROTAC activity at CRBN/FLT3-ITD mutant in human MV4-11 cells at 30 nM measured upto 32 hrs in the presence of cycloheximide by Western blot analysis; assay type: cell-based
[11] = system: Protein cereblon/Receptor-type tyrosine-protein kinase FLT3 (Homo sapiens), P36888+Q96SW2 [UNDEFINED MUTATION]; test: PROTAC activity at CRBN/FLT3-ITD mutant in human MOLM-14 cells assessed as decrease in IKZF1 protein expression at 0.01 to 0.3 uM incubated for 24 hrs by Western blot analysis; assay type: cell-based; settings: dose 0.01-0.3 µM
MOLM-14 = test: Antiproliferative activity against human MOLM-14 cells harboring FLT3-ITD mutant assessed as inhibition of cell proliferation incubated for 72 hrs by WST-8 assay; assay type: functional, cell-based; settings: MOLM-14, 72 h
[12] = system: Protein cereblon/Receptor-type tyrosine-protein kinase FLT3 (Homo sapiens), P36888+Q96SW2 [UNDEFINED MUTATION]; test: PROTAC activity at CRBN/FLT3-ITD mutant in human MOLM-14 cells assessed as decrease in ALK protein expression by Western blot analysis; assay type: cell-based
[13] = system: Protein cereblon/Receptor-type tyrosine-protein kinase FLT3 (Homo sapiens), P36888+Q96SW2 [UNDEFINED MUTATION]; test: PROTAC activity at CRBN/FLT3-ITD mutant in human MV4-11 cells assessed as inhibition of STAT5 phosphorylation at 0.03 to 3 uM incubated for 24 hrs by Western blot analysis; assay type: cell-based; settings: dose 0.03-3 µM
[14] = system: Protein cereblon/Receptor-type tyrosine-protein kinase FLT3 (Homo sapiens), P36888+Q96SW2 [UNDEFINED MUTATION]; test: PROTAC activity at CRBN/FLT3-ITD mutant in human MV4-11 cells assessed as inhibition of FLT3 phosphorylation at 0.03 to 3 uM incubated for 24 hrs by Western blot analysis; assay type: cell-based; settings: dose 0.03-3 µM

## CNC(=O)c1cc(Oc2ccc(NC(=O)Nc3ccc(Cl)c(C(F)(F)F)c3)cc2)ccn1
[1]
  inhibition: Active

## CC1(COc2ccc3c(c2)ncn3-c2ccc3cccc(N4CCC(N)CC4)c3n2)COC1
[1]
  inhibition: Active

## CC(C)(C)c1cc(NC(=O)Nc2ccc(-c3cn4c(n3)sc3cc(OCCN5CCOCC5)ccc34)cc2)no1
[1]
  inhibition: Active

## CCc1nc(C(N)=O)c(Nc2ccc(N3CCC(N4CCN(CC5CCN(C(=O)CCOCCOCCNc6cccc7c6C(=O)N(C6CCC(=O)NC6=O)C7=O)CC5)CC4)CC3)c(OC)c2)nc1NC1CCOCC1 (stereo unspecified)
[2]
  Activity: Active
[3]
  Activity: Active
[4]
  Activity: Active
[5]
  Activity: Active
[6]
  Activity: Active
[7]
  Activity: Active
[8]
  Activity: Active
[9]
  Activity: Active
MV4-11
  IC50: 0.9 nM
[10]
  Activity: Active
[11]
  Activity: Active
MOLM-14
  IC50: 2.8 nM
[12]
  Activity: Active

## CCc1nc(C(N)=O)c(Nc2ccc(N3CCC(N4CCN(CC5CCN(C(=O)CCOCCOCCOCCOCCNc6cccc7c6C(=O)N(C6CCC(=O)NC6=O)C7=O)CC5)CC4)CC3)c(OC)c2)nc1NC1CCOCC1 (stereo unspecified)
[5]
  Activity: Active
[6]
  Activity: Active
[13]
  Activity: Active
[14]
  Activity: Active

## CCc1nc(C(N)=O)c(Nc2ccc(N3CCC(N4CCN(C)CC4)CC3)c(OC)c2)nc1NC1CCOCC1
[1]
  inhibition: Active
